{"source": "patent US20260022142A1", "about": "“MACROCYCLIC IMMUNOMODULATORS” (Bristol-Myers Squibb Company, priority 2022, published 2026)", "target": "T1, PD-1/PD-L1 interaction (PE-labeled human PD-L1-Ig binding to Jurkat cell line over-expressing human PD-1) (Homo sapiens, UniProt Q15116)", "T1 construct": "expressed in transfected cells; host or cells: Jurkat", "T1 sequence (Q15116 25-288)": "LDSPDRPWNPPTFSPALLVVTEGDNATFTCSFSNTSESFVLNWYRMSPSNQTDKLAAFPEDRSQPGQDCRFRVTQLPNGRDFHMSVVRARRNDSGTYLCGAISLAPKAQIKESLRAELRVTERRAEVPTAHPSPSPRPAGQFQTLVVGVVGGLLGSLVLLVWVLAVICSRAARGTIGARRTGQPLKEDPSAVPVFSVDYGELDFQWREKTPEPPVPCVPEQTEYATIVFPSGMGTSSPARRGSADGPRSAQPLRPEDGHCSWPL", "test": "Jurkat-PD-1 Cell Binding High-Content Screening Assay (CBA)", "format": "cell-based", "conditions": "Jurkat cell line over-expressing human PD-1; PE-labeled PD-L1-Ig 20 nM final; read-out: Jurkat hPD1-PDL1 IC50", "method_in_brief": "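Jurkat cells stably over-expressing human PD-1 were seeded in DMEM with 10% fetal calf serum and pre-incubated with compound for 2 h at 37° C. PE-labeled human PD-L1-Ig was then added at 20 nM final for 1 hour, after which cells were fixed with paraformaldehyde, Hoechst-stained and imaged by high-content microscopy.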", "note": "Bridge positions count the residues as written; N and C are the ends. Square brackets hold non-standard residues; d marks the D form. Peptide text beside a SMILES is read from it. * marks the point of attachment. Phe(4-CONH2) = NC(=O)c1ccc(C[C@H](N)C(=O)O)cc1; Phe(3,4-F2) = N[C@@H](Cc1ccc(F)c(F)c1)C(=O)O; Bip = N[C@@H](Cc1ccc(-c2ccccc2)cc1)C(=O)O; Phe(3-Me) = Cc1cccc(C[C@H](N)C(=O)O)c1; Phe(4-F) = N[C@@H](Cc1ccc(F)cc1)C(=O)O; Val(3-OH) = CC(C)(O)[C@H](N)C(=O)O; 4Pal = N[C@@H](Cc1ccncc1)C(=O)O; Cha = N[C@@H](CC1CCCCC1)C(=O)O; Carboxymethyl = O=C(O)C*; Orn = NCCC[C@H](N)C(=O)O; Aun = NCCCCCCCCCCC(=O)O; Dab = NCC[C@H](N)C(=O)O; Abu = CC[C@H](N)C(=O)O; Dap = NC[C@H](N)C(=O)O"}
{"smiles": "Cc1cccc(C[C@@H]2NC(=O)[C@H](CC(=O)O)NC(=O)[C@H](Cc3ccc(OCC(=O)O)cc3)NC(=O)[C@H](CCCN)NC(=O)CSC[C@@H](C(=O)N[C@@H](CCN)C(=O)NCCCCCCCCCCC(=O)O)NC(=O)[C@H](CO)NC(=O)[C@H](C(C)(C)O)NC(=O)[C@H](CC3CCCCC3)NC(=O)[C@H](CCN)NC(=O)[C@@H](CC(C)C)NC(=O)[C@H](CCCN)NC(=O)[C@H](Cc3ccc(OCC(=O)O)cc3)NC(=O)[C@H](Cc3ccc(-c4ccccc4)cc3)NC(=O)[C@H](Cc3ccc(OCC(=O)O)cc3)NC2=O)c1", "note": "[Compound 2212] ({CH2CO}-[Orn]Y(Carboxymethyl)D[Phe(3-Me)]Y(Carboxymethyl)[Bip]Y(Carboxymethyl)[Orn][dL][Dab][Cha][Val(3-OH)]SC[Dab][Aun]-OH; thioether N-14)", "values": [{"measurement": "IC50", "result": 10, "unit": "nM"}]}
{"smiles": "Cc1cccc(C[C@@H]2NC(=O)[C@H](CC(=O)O)NC(=O)[C@H](Cc3ccc(OCC(=O)O)cc3)NC(=O)[C@H](CN)NC(=O)CSC[C@@H](C(=O)N[C@@H](CCN)C(=O)NCCCCCCCCCCC(=O)O)NC(=O)[C@H](CO)NC(=O)[C@H](C(C)(C)O)NC(=O)[C@H](CC3CCCCC3)NC(=O)[C@H](CCN)NC(=O)[C@@H](CC(C)C)NC(=O)[C@H](CCCN)NC(=O)[C@H](Cc3ccc(OCC(=O)O)cc3)NC(=O)[C@H](Cc3ccc(-c4ccccc4)cc3)NC(=O)[C@H](Cc3ccc(OCC(=O)O)cc3)NC2=O)c1", "note": "[Compound 2213] ({CH2CO}-[Dap]Y(Carboxymethyl)D[Phe(3-Me)]Y(Carboxymethyl)[Bip]Y(Carboxymethyl)[Orn][dL][Dab][Cha][Val(3-OH)]SC[Dab][Aun]-OH; thioether N-14)", "values": [{"measurement": "IC50", "result": 11, "unit": "nM"}]}
{"smiles": "CC[C@@H]1NC(=O)CSC[C@@H](C(=O)N[C@@H](CCN)C(=O)NCCCCCCCCCCC(=O)O)NC(=O)[C@H](CO)NC(=O)[C@H](C(C)(C)O)NC(=O)[C@H](CC2CCCCC2)NC(=O)[C@H](CCN)NC(=O)[C@@H](CC(C)C)NC(=O)[C@H](CCCN)NC(=O)[C@H](Cc2ccc(OCC(=O)O)cc2)NC(=O)[C@H](Cc2ccc(-c3ccccc3)cc2)NC(=O)[C@H](Cc2ccc(OCC(=O)O)cc2)NC(=O)[C@H](Cc2cccc(C)c2)NC(=O)[C@H](CC(=O)O)NC(=O)[C@H](Cc2ccc(OCC(=O)O)cc2)NC1=O", "note": "[Compound 2214] ({CH2CO}-[Abu]Y(Carboxymethyl)D[Phe(3-Me)]Y(Carboxymethyl)[Bip]Y(Carboxymethyl)[Orn][dL][Dab][Cha][Val(3-OH)]SC[Dab][Aun]-OH; thioether N-14)", "values": [{"measurement": "IC50", "result": 8, "unit": "nM"}]}
{"smiles": "Cc1cccc(C[C@@H]2NC(=O)[C@H](CC(=O)O)NC(=O)[C@H](Cc3ccc(OCC(=O)O)cc3)NC(=O)[C@H](Cc3ccncc3)NC(=O)CSC[C@@H](C(=O)N[C@@H](CCN)C(=O)NCCCCCCCCCCC(=O)O)NC(=O)[C@H](CO)NC(=O)[C@H](C(C)(C)O)NC(=O)[C@H](CC3CCCCC3)NC(=O)[C@H](CCN)NC(=O)[C@@H](CC(C)C)NC(=O)[C@H](CCCN)NC(=O)[C@H](Cc3ccc(OCC(=O)O)cc3)NC(=O)[C@H](Cc3ccc(-c4ccccc4)cc3)NC(=O)[C@H](Cc3ccc(OCC(=O)O)cc3)NC2=O)c1", "note": "[Compound 2215] ({CH2CO}-[4Pal]Y(Carboxymethyl)D[Phe(3-Me)]Y(Carboxymethyl)[Bip]Y(Carboxymethyl)[Orn][dL][Dab][Cha][Val(3-OH)]SC[Dab][Aun]-OH; thioether N-14)", "values": [{"measurement": "IC50", "result": 12.8, "unit": "nM"}]}
{"smiles": "Cc1cccc(C[C@@H]2NC(=O)[C@H](CC(=O)O)NC(=O)[C@H](Cc3ccc(OCC(=O)O)cc3)NC(=O)[C@H](Cc3ccc(F)cc3)NC(=O)CSC[C@@H](C(=O)N[C@@H](CCN)C(=O)NCCCCCCCCCCC(=O)O)NC(=O)[C@H](CO)NC(=O)[C@H](C(C)(C)O)NC(=O)[C@H](CC3CCCCC3)NC(=O)[C@H](CCN)NC(=O)[C@@H](CC(C)C)NC(=O)[C@H](CCCN)NC(=O)[C@H](Cc3ccc(OCC(=O)O)cc3)NC(=O)[C@H](Cc3ccc(-c4ccccc4)cc3)NC(=O)[C@H](Cc3ccc(OCC(=O)O)cc3)NC2=O)c1", "note": "[Compound 2216] ({CH2CO}-[Phe(4-F)]Y(Carboxymethyl)D[Phe(3-Me)]Y(Carboxymethyl)[Bip]Y(Carboxymethyl)[Orn][dL][Dab][Cha][Val(3-OH)]SC[Dab][Aun]-OH; thioether N-14)", "values": [{"measurement": "IC50", "result": 36.7, "unit": "nM"}]}
{"smiles": "Cc1cccc(C[C@@H]2NC(=O)[C@H](CC(=O)O)NC(=O)[C@H](Cc3ccc(OCC(=O)O)cc3)NC(=O)[C@H](Cc3ccc(F)c(F)c3)NC(=O)CSC[C@@H](C(=O)N[C@@H](CCN)C(=O)NCCCCCCCCCCC(=O)O)NC(=O)[C@H](CO)NC(=O)[C@H](C(C)(C)O)NC(=O)[C@H](CC3CCCCC3)NC(=O)[C@H](CCN)NC(=O)[C@@H](CC(C)C)NC(=O)[C@H](CCCN)NC(=O)[C@H](Cc3ccc(OCC(=O)O)cc3)NC(=O)[C@H](Cc3ccc(-c4ccccc4)cc3)NC(=O)[C@H](Cc3ccc(OCC(=O)O)cc3)NC2=O)c1", "note": "[Compound 2217] ({CH2CO}-[Phe(3,4-F2)]Y(Carboxymethyl)D[Phe(3-Me)]Y(Carboxymethyl)[Bip]Y(Carboxymethyl)[Orn][dL][Dab][Cha][Val(3-OH)]SC[Dab][Aun]-OH; thioether N-14)", "values": [{"measurement": "IC50", "result": 27.9, "unit": "nM"}]}
{"smiles": "Cc1cccc(C[C@@H]2NC(=O)[C@H](CC(=O)O)NC(=O)[C@H](Cc3ccc(OCC(=O)O)cc3)NC(=O)[C@H](Cc3ccc(C(N)=O)cc3)NC(=O)CSC[C@@H](C(=O)N[C@@H](CCN)C(=O)NCCCCCCCCCCC(=O)O)NC(=O)[C@H](CO)NC(=O)[C@H](C(C)(C)O)NC(=O)[C@H](CC3CCCCC3)NC(=O)[C@H](CCN)NC(=O)[C@@H](CC(C)C)NC(=O)[C@H](CCCN)NC(=O)[C@H](Cc3ccc(OCC(=O)O)cc3)NC(=O)[C@H](Cc3ccc(-c4ccccc4)cc3)NC(=O)[C@H](Cc3ccc(OCC(=O)O)cc3)NC2=O)c1", "note": "[Compound 2218] ({CH2CO}-[Phe(4-CONH2)]Y(Carboxymethyl)D[Phe(3-Me)]Y(Carboxymethyl)[Bip]Y(Carboxymethyl)[Orn][dL][Dab][Cha][Val(3-OH)]SC[Dab][Aun]-OH; thioether N-14)", "values": [{"measurement": "IC50", "result": 7.1, "unit": "nM"}]}
{"smiles": "Cc1cccc(C[C@@H]2NC(=O)[C@H](CC(=O)O)NC(=O)[C@H](Cc3ccc(OCC(=O)O)cc3)NC(=O)[C@H](Cc3cnc[nH]3)NC(=O)CSC[C@@H](C(=O)N[C@@H](CCN)C(=O)NCCCCCCCCCCC(=O)O)NC(=O)[C@H](CO)NC(=O)[C@H](C(C)(C)O)NC(=O)[C@H](CC3CCCCC3)NC(=O)[C@H](CCN)NC(=O)[C@@H](CC(C)C)NC(=O)[C@H](CCCN)NC(=O)[C@H](Cc3ccc(OCC(=O)O)cc3)NC(=O)[C@H](Cc3ccc(-c4ccccc4)cc3)NC(=O)[C@H](Cc3ccc(OCC(=O)O)cc3)NC2=O)c1", "note": "[Compound 2219] ({CH2CO}-HY(Carboxymethyl)D[Phe(3-Me)]Y(Carboxymethyl)[Bip]Y(Carboxymethyl)[Orn][dL][Dab][Cha][Val(3-OH)]SC[Dab][Aun]-OH; thioether N-14)", "values": [{"measurement": "IC50", "result": 4.7, "unit": "nM"}]}
{"smiles": "Cc1cccc(C[C@@H]2NC(=O)[C@H](CC(=O)O)NC(=O)[C@H](Cc3ccc(OCC(=O)O)cc3)NC(=O)[C@H](CC(N)=O)NC(=O)CSC[C@@H](C(=O)N[C@@H](CCN)C(=O)NCCCCCCCCCCC(=O)O)NC(=O)[C@H](CO)NC(=O)[C@H](C(C)(C)O)NC(=O)[C@H](CC3CCCCC3)NC(=O)[C@H](CCN)NC(=O)[C@@H](CC(C)C)NC(=O)[C@H](CCCN)NC(=O)[C@H](Cc3ccc(OCC(=O)O)cc3)NC(=O)[C@H](Cc3ccc(-c4ccccc4)cc3)NC(=O)[C@H](Cc3ccc(OCC(=O)O)cc3)NC2=O)c1", "note": "[Compound 2220] ({CH2CO}-NY(Carboxymethyl)D[Phe(3-Me)]Y(Carboxymethyl)[Bip]Y(Carboxymethyl)[Orn][dL][Dab][Cha][Val(3-OH)]SC[Dab][Aun]-OH; thioether N-14)", "values": [{"measurement": "IC50", "result": 12.3, "unit": "nM"}]}
